Each structure is given as a SMILES string. Counter-ions that a name gives are not always drawn.

Data set [1] has as its target T1, human NK1 receptor (Homo sapiens, UniProt P25103). Nature of the data set: [3H]substance P binding at human NK1 receptors in CHO cells. The conditions noted are these: [3H]substance P 0.6 nM, 60 min room temperature, read-out: affinity (pKi) for the human NK1 receptor (converted). Here is the method: All assays were performed in triplicate in at least2 separate experiments.

A further data set concerns the target T2, NK3 receptors (Homo sapiens, UniProt P29371).
T2 sequence (P29371 1-465): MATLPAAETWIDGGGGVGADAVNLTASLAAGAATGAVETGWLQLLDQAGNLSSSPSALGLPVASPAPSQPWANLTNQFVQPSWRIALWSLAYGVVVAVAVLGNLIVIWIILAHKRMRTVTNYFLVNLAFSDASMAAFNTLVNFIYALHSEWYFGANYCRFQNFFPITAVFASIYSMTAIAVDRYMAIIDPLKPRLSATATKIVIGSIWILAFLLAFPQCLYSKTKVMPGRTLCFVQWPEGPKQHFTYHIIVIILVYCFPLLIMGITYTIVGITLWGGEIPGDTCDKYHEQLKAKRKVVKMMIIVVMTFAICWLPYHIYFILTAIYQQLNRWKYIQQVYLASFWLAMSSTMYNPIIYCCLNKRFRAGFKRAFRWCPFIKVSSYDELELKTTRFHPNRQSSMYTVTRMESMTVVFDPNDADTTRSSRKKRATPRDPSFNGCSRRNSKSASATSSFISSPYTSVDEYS
Nature of the data set: Selectivity for NK1 compared to NK3 receptors. Type of data set: binding.

A further data set can be described thus: in vivo. The note with it: dog; for bioavailability: po.
Data set [2] is described as follows: Pharmacokinetic parameters in rats. The conditions noted are these: rat, in vivo; for bioavailability: po; for half-life: read-out: terminal half-life (converted); for Vd: read-out: volume of distribution.
The target in the next data set is T3, NK2 receptors (Homo sapiens, UniProt P21452).
T3 sequence (P21452 1-398): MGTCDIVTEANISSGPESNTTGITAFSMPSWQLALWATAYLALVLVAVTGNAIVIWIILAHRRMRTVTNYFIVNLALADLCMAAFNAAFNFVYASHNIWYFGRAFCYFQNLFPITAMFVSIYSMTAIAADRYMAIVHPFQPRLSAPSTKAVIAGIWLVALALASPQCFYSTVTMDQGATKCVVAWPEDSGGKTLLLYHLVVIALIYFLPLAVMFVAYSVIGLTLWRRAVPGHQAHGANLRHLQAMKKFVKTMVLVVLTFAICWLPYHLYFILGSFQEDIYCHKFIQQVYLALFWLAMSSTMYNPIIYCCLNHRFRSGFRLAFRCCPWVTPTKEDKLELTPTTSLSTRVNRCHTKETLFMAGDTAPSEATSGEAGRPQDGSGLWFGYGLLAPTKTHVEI
Nature of the data set: Selectivity for NK1 compared to NK2 receptors. In kind it is binding.

In data set [3] the test system is emesis induced in ferrets by emetogens. Briefly: Antiemetic test in ferrets. Type of data set: in vivo, ferret. The note with it: 0.3 mg/kg p.o., 2 hours before the emetogen. As for the experimental part:
The compound of formula 1a, 2-(3,5-Bis-trifluoromethyl-phenyl)-N-methyl-N-(6-morpholin-4-yl-4-o-tolyl-pyridin-3-yl)-isobutyramide, was also tested as an antiemetic agent in ferrets.
2-(3,5-bis-trifluoromethyl-phenyl)-N-methyl-N-[6-(4-methyl-piperazin-1-yl)-4-o-tolyl-pyridin-3-yl]-isobutyramide was also tested as an antiemetic agent in Ferrets.

The test system of data set [4] is foot-tapping behaviour induced in gerbils with an NK1 receptor agonist. Briefly: Foot-tapping behaviour induced by i.c.v. NK1 receptor agonist. In kind it is in vivo, gerbil. The note with it: for dose calculated to inhibit 50% of the foot-tapping behaviour: oral administration. Here is the method: In vivo the compound of formula Ia antagonises foot-tapping behaviour induced in gerbils with intracerebroventricular (i.c.v.) injections of an NK1 receptor agonist. The dose for this compound calculated to inhibit 50% of the foot-tapping behaviour following oral administration was 0.2 mg/kg.
In vivo 2-(3,5-bis-trifluoromethyl-phenyl)-N-methyl-N-[6-(4-methyl-piperazin-1-yl)-4-o-tolyl-pyridin-3-yl]-isobutyramide antagonises foot-tapping behaviour induced in Gerbils with intracerebroventricular (i.c.v.) injections of an NK1 receptor agonist. The dose of this compound calculated to inhibit 50% of the foot-tapping behaviour following oral administration was 0.5 mg/kg.
In vivo the compound of formula Ic antagonises foot-tapping behaviour induced in Gerbils with intracerebroventricular (i.c.v.) injections of an NK1 receptor agonist. The dose of this compound calculated to inhibit 50% of the foot-tapping behaviour following oral administration was 1.5 mg/kg.

For data set [5], the target named is T1, human NK1 receptor. Briefly: Substance P induced Ca2+ influx in CHO cells (FLIPR). Type of data set: cell-based. More on the design: expressed in transfected cells; host or cells: CHO cells. The conditions noted are these: for effect on substance P induced Ca2+ influxes: CHO cells expressing recombinant human NK1 receptor, FLIPR; for type of antagonism at human recombinant NK1 receptors: from Ca2+ influx data. The text has this:
The activity in vitro of the compound of formula 1a was examined by studying its effect on substance P induced Ca^2+ influxes in CHO cells expressing the recombinant human NK1 receptor. In these cells, substance P causes a concentration dependent influx of Ca^2+ which can be measured using FLIPR technology.
The activity of 2-(3,5-bis-trifluoromethyl-phenyl)-N-methyl-N-[^6-(^4-methyl-piperazin-1-yl)-4-o-tolyl-pyridin-3-yl]-isobutyramide in vitro was examined by studying its effect on substance P induced Ca^2+influxes in CHO cells expressing the recombinant human NK1 receptor. In these cells, substance P causes a concentration dependent influx of Ca^2+ which can be measured using FLIPR technology.
The activity of the compound of formula Ic in vitro was examined by studying its effect on substance P induced Ca^2+ influxes in CHO cells expressing the recombinant human NK1 receptor. In these cells, substance P causes a concentration dependent influx of Ca^2+ which can be measured using FLIPR technology.

Data set [6] relates to over 50 other binding sites. Nature of the data set: Selectivity for NK1 compared to over 50 other binding sites.

T1 sequence (P25103 whole entry): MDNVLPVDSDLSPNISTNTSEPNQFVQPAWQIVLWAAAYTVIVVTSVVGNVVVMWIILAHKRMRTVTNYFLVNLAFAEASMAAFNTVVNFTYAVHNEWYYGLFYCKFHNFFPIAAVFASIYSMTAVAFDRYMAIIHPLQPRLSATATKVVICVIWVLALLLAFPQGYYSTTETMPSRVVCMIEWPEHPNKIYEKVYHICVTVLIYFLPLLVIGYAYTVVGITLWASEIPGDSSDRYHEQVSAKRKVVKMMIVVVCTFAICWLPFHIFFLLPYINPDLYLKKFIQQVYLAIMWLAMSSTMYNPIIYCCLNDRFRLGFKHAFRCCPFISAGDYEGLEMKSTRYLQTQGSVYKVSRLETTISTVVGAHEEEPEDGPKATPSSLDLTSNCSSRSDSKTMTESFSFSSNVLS
From the text for in vivo: The pharmacokinetic parameters have been evaluated in both rats and dogs.

One may read the melting point as the temperature of the solid-liquid transition. As for `Cc1ccccc1-c1cc(N(C)C)ncc1N(C)C(=O)C(C)(C)c1cc(C(F)(F)F)cc(C(F)(F)F)c1` (as salt: hydrochloride) [Example 29, 2-(3,5-Bis-trifluoromethyl-phenyl)-N-(6-dimethylamino-4-o-tolyl-pyridin-3-yl)-N-methyl-isobutyramide], the melting point was 174 to 175 °C.
Consider `Cc1ccccc1-c1cc(N2CCOCC2)ncc1N(C)C(=O)C(C)(C)c1cc(C(F)(F)F)cc(C(F)(F)F)c1` (as salt: hydrochloride) [Ia, 2-(3,5-bis-trifluoromethyl-phenyl)-N-methyl-N-(6-morpholin-4-yl-4-o-tolyl-pyridin-3-yl)-isobutyramide], for which the melting point was 73.5 to 76 °C.
As for `CN(C(=O)C(C)(C)c1cc(C(F)(F)F)cc(C(F)(F)F)c1)c1cnccc1-c1ccccc1Cl` (as salt: hydrochloride) [Ic, 2-(3,5-Bis-trifluoromethyl-phenyl)-N-[4-(2-chloro-phenyl)-pyridin-3-yl]-N-methyl-isobutyramide], the melting point lay within 186 to 188 °C.
In the case of `Cc1ccccc1-c1ccncc1N(C)C(=O)C(C)(C)c1cc(C(F)(F)F)cc(C(F)(F)F)c1` [Example 18, 2-(3,5-Bis-trifluoromethyl-phenyl)-N-methyl-N-(4-o-tolyl-pyridin-3-yl)-isobutyramide Hydrochloride (1:1)], on human NK1 receptor [1], the Ki was 3.39 nM.
Consider `Cc1ccccc1-c1cc(N(C)CCN2CCOCC2)ncc1N(C)C(=O)C(C)(C)c1cc(C(F)(F)F)cc(C(F)(F)F)c1` [Example 25, 2-(3,5-Bis-trifluoromethyl-phenyl)-N-methyl-N-{6-[methyl-(2-morpholin-4-yl-ethyl)-amino]-4-o-tolyl-pyridin-3-yl}-isobutyramide], for which the Ki at human NK1 receptor [1] was 2 nM.
For the molecule `Cc1ccccc1-c1cc(N2CCNCC2)ncc1N(C)C(=O)C(C)(C)c1cc(C(F)(F)F)cc(C(F)(F)F)c1` [Example 31, 2-(3,5-Bis-trifluoromethyl-phenyl)-N-methyl-N-(6-piperazin-1-yl-4-o-tolyl-pyridin-3-yl)-isobutyramide], the Ki on human NK1 receptor [1] is 1 nM.
With `Cc1ccccc1-c1cc(N2CCN(Cc3n[nH]c(=O)[nH]3)CC2)ncc1C(=O)N(C)Cc1cc(C(F)(F)F)cc(C(F)(F)F)c1` [Example 58, N-(3,5-Bis-trifluoromethyl-benzyl)-N-methyl-6-[4-(5-oxo-4,5-dihydro-1H-[1,2,4]triazol-3-ylmethyl)-piperazin-1-yl]-4-o-tolyl-nicotinamide], at human NK1 receptor [1], the Ki is 0.288 nM.
On to `CC(C)c1cc(Cl)ncc1C(=O)NC(C)(C)C` [Example 83, N-tert-Butyl-6-chloro-4-(prop-2-yl)-nicotinamide], for which the melting point is 130 to 140 °C (dec.).
In turn, `CC(C)(C)NC(=O)c1cnc(Cl)cc1-c1ccc(F)cc1` [Example 84, N-tert.-Butyl-6-chloro-4-p-fluoro-phenyl-nicotinamide] yielded a melting point of 168 to 173 °C.
As usually defined, the clearance is the volume of plasma or blood freed of the substance per unit of time. Low values mean inefficient removal, high ones efficient removal. Usually half-life stands for the time needed for the level to fall by half in the phase considered. Broadly, the bioavailability is the share of a dose that reaches the circulation, judged against a reference dose that is usually intravenous. Regarding `Cc1ccccc1-c1cc(N2CCOCC2)ncc1N(C)C(=O)C(C)(C)c1cc(C(F)(F)F)cc(C(F)(F)F)c1` [Ia, 2-(3,5-bis-trifluoromethyl-phenyl)-N-methyl-N-(6-morpholin-4-yl-4-o-tolyl-pyridin-3-yl)-isobutyramide], on NK3 receptors, the “selectivity for the NK1 receptor compared to NK3 receptors” value was “over 2 orders of magnitude”. In “in vivo”, the Vd is 22 L/kg, the clearance is 16 mL/min/kg, the half-life was 40 h and the bioavailability lay within 30 to 40%. In data set [2], the clearance came out at 4 mL/min/kg, the bioavailability was 50%, the half-life is 23 h and the Vd was determined as 8 L/kg. Moreover, the Ki at human NK1 receptor [1] was 1 nM. Also, the “selectivity for the NK1 receptor compared to NK2 receptors” value at NK2 receptors is on record as “over 2 orders of magnitude”. The “emesis induced by all emetogens (apomorphine, morphine, ipecacuanha, cisplatin, CuSO4)” value in [3] is on record as “completely blocked”. The “dose calculated to inhibit 50% of the foot-tapping behaviour” value in [4] is recorded as 0.2 mg/kg. Moreover, at human NK1 receptor [5], the “effect on substance P induced Ca2+ influxes” value was “rightward shift in the concentration effect curve of substance P” and the “type of antagonism at human recombinant NK1 receptors” value is given as “competitive antagonist”. The “slope of the Schild regression” value on human NK1 receptor [5] (substance P induced Ca2+ influx, CHO cells) is given as 1.1. Further, in data set [6], the “selectivity for the NK1 receptor compared to over 50 other binding sites” value is on record as “over 2 orders of magnitude”.
As to `CN(C(=O)C(C)(C)c1cc(C(F)(F)F)cc(C(F)(F)F)c1)c1cnccc1-c1ccccc1Cl` [Ic, 2-(3,5-Bis-trifluoromethyl-phenyl)-N-[4-(2-chloro-phenyl)-pyridin-3-yl]-N-methyl-isobutyramide], the “selectivity for the NK1 receptor compared to NK3 receptors” value at NK3 receptors is “over 2 orders of magnitude”. In addition, in “in vivo”, the Vd is 4.5 L/kg, the clearance amounted to 30 mL/min/kg, the half-life is 3.5 h and the bioavailability stood at 16%. In data set [2], the clearance is 45 mL/min/kg, the bioavailability is roughly 30%, the half-life was 11 h and the Vd was determined as 2.6 L/kg. On human NK1 receptor [1], the Ki is 2.51 nM. The “selectivity for the NK1 receptor compared to NK2 receptors” value at NK2 receptors is listed as “over 2 orders of magnitude”. For the same molecule, in data set [4], the “total plasma concentration required to completely block the foot-tapping behaviour” value worked out at 100 ng/mL and the “dose calculated to inhibit 50% of the foot-tapping behaviour” value is recorded as 1.5 mg/kg. Moreover, at human NK1 receptor [5], the “effect on substance P induced Ca2+ influxes” value is reported as “inhibited this effect in a concentration dependent manner” and the “type of antagonism at human recombinant NK1 receptors” value is listed as “competitive antagonist”. The “selectivity for the NK1 receptor compared to over 50 other binding sites” value in data set [6] is “over 2 orders of magnitude”.

The values above are taken from patent US20020091265A1, “4-phenyl-pyridine derivatives” (priority 1999, published 2002).
